Like-named read-outs stand apart in the source and are kept apart here.
Assays:
P. falciparum 3D7 [1] = test: P. falciparum dose-response growth inhibition assay (FACS, SYTO 11); type: cell-based; settings: P. falciparum 3D7, 48 h, mean (SD)
Protocol: (§1) Apicomplexan parasite cultures were maintained at 3% hematocrit under an atmosphere of 37 °C in 93% N2, 5% CO2, and 2% O2, following standard methods. Synchronized cultures were obtained via 5% sorbitol lysis.
(§2) P. falciparum growth was primarily analyzed under 3 different concentrations (100, 10, and 1 mM) of the 81 compounds. Conditions were tested in triplicate for every concentration, and the test was repeated when the standard deviation was above 10% for any concentration. Z-values varied between 0.83 and 0.98 in the different plates analyzed. Selected compounds (12.3% potential hit rate) were further analyzed via standard growth inhibition assays, carried out as previously described in [54]. Briefly, parasitemia was adjusted to 1–1.3%, with >90% rings after sorbitol synchronization. Two hundred microliters of parasite culture were plated in 96-well microplates and incubated for 48 h at 37 °C in the presence of decreasing concentrations of the tested compounds, in triplicate. Parasitemia was determined by fluorescence-assisted cell sorting (FACS). Non-infected RBCs and samples containing parasitized RBCs (including controls with DMSO as carrier solvent) were diluted in PBS to a final concentration of ~1–10 × 10^6 cells/mL. The cell suspension was stained with SYTO 11 (0.5 mM stock in DMSO, Thermo Fisher Scientific, Waltham, MA, USA), to a final concentration of 0.5 μM. Samples were analyzed in a Becton Dickinson FACSCalibur. Sample excitation was carried out using a 488-nm, air-cooled argon-ion laser at a power of 15 mW, using forward and side scatter to gate the RBC population, and SYTO 11 green fluorescence (530 nm, FITC filter) was collected in a logarithmic scale. The single-cell population was selected on a forward–side scattergram, and the green fluorescence from this population was analyzed. Parasitemia was expressed as the number of parasitized cells per 100 erythrocytes.
(§3) Absorbance values derived from the anti-T. cruzi assays and fluorescence values from the anti-P. falciparum and cell toxicity assays were normalized to the controls. In the primary screening at three fixed doses, the compounds’ inhibitory activity was expressed as a percentage of the negative control (100% parasitic growth). In dose–response assays, the compounds’ IC50 and TC50 values were determined with GraphPad Prism 7 software (version 7.00, 2016), using a non-linear regression analysis model defined by the following equation: Y=100 ÷(1+10^((LogIC50−X)×HillSlope))

Vero cells = test: Vero cell toxicity assay (alamarBlue); type: cell-based, green monkey; settings: 4 days; minimum value of the 95% CI, except BNZ (mean (SD))
Protocol: Human erythrocytes were purified from B+ Rh+ blood samples and maintained at 4 °C in incomplete RPMI medium. Vero (green monkey kidney epithelial cells), LLC-MK2 (Rhesus monkey kidney epithelial cells), and HepG2 (human liver epithelial cells) cultures were cultivated in DMEM supplemented with 1% penicillin–streptomycin (PS) and 10% heat-inactivated fetal bovine serum (FBS) at 37 °C, 5% CO2, and >95% humidity, as described in [31]. HepG2 cells were also supplemented with 10% non-essential amino acids. Vero and MK2 cells were passaged twice per week at 1:12 ratios, while HepG2 cells were passaged at a 1:8 ratio.
Vero and HepG2 cells were detached, centrifuged, and resuspended in DMEM without phenol red. Cell viability was checked upon cell counting with trypan blue staining. Then, Vero and HepG2 cells were diluted at a concentration of 5 × 10^5 and 3.2 × 10^5 cells per mL, respectively, before adding 100 µL per well to the 96-well plate. Each run contained its own negative (untreated cells) and positive (medium alone) controls. Plates were incubated at 37 °C for 4 days in the case of Vero, or 2 in the case of HepG2 cells. Assay readout was made by adding 50 µL per well of a PBS solution containing 10% alamarBlue reagent (Thermo Fisher Scientific); then, plates were incubated for another 6 h at 37 °C, before recording the fluorescence intensity with a Tecan Infinite M Nano+ reader (excitation: 530 nm, emission: 590 nm).
as §3

P. falciparum 3D7 [2] = test: P. falciparum primary screening at three fixed concentrations; type: cell-based; settings: average of at least three experiments; for activity at 1 µM / activity at 10 µM / activity at 100 µM: Plasmodium falciparum, read-out: Primary screening, parasite growth relative to the negative control; for activity at 1 µM: 3D7, compound at 1 µM; for activity at 10 µM: 3D7, compound at 10 µM; for activity at 100 µM: 3D7, compound at 100 µM
Protocol: as §1
as §2, with “P. falciparum growth was primarily analyzed under 3 different concentrations (100, 10, and 1 mM) of the 81 compounds.” left out
as §3

[3] = tested on: T. cruzi Tulahuen strain expressing β-galactosidase; test: T. cruzi primary screening at three fixed concentrations; type: cell-based; settings: for activity at 100 µM / activity at 1 µM / activity at 10 µM: Trypanosoma cruzi, TULAHUEN; for activity at 100 µM: read-out: Primary screening, growth inhibition values at 100 µM; for activity at 1 µM: read-out: Primary screening, growth inhibition values at 1 µM; for activity at 10 µM: read-out: Primary screening, growth inhibition values at 10 µM
Protocol: (§4) T. cruzi parasites from the Tulahuen strain (discrete typing unit (DTU) VI) expressing β-galactosidase were maintained in culture by the infection of LLC-MK2 cells in DMEM supplemented with 2% FBS and 1% penicillin–streptomycin–glutamine (PSG), as described in [52]. When free-swimming trypomastigotes were released to the culture medium, they were centrifuged for 7 min at 2500 rpm and allowed to swim out of the pellet. Trypomastigotes were used to maintain the parasite cycle, or for the performance of the antiparasitic assays.
[…] Conditions were tested in triplicate for every concentration. Z-values varied between 0.81 and 0.92 in the different plates analyzed. Selected compounds (34.6% potential hit rate) were further analyzed via standard growth inhibition assays. The Z-values of dose–response assays correlated with those previously reported. For both assays, Vero cells and trypomastigotes from the Tulahuen T. cruzi strain expressing β-galactosidase were harvested, centrifuged, and resuspended in DMEM without phenol red supplemented with 1% PSG, 2% FBS, 1 mM sodium pyruvate, and 25 mM HEPES. Vero cells and trypomastigotes were counted, diluted at a concentration of 1 × 10^6 cells/mL each, and mixed 1:1 (v/v). Then, 100 μL of that mixture was added per well to the plates already containing the compounds. Each well contained 50,000 host cells and 50,000 parasites, i.e., multiplicity of infection (MOI) = 1. BNZ was used as control of maximal drug growth inhibition in each round, whereas each plate contained its own negative control (maximum parasite growth; Vero cells plus parasites without drugs) and positive control (minimum parasite growth; trypomastigote forms alone marking an enzymatic zero time or baseline galactosidase activity). After four days at 37 °C, 50 µL of a PBS solution containing 0.25% NP40 and 500 µM chlorophenol red-β-D-galactopyranoside (CPRG) substrate were added per well [32]. Plates were incubated at 37 °C for 4 h, and their absorbance read out at 590 nm using an Epoch Gene5 spectrophotometer.
as §3

[4] = tested on: T. cruzi intracellular amastigotes; test: Antiamastigote growth inhibition assay; type: cell-based; settings: intracellular amastigotes in Vero cells; mean (SD); read-out: T. cruzi IC50 b (antiamastigote assay)
Protocol: Vero cells were seeded in T-175 flasks (5 × 10^6 cells per flask) in DMEM supplemented with 1% penicillin–streptomycin and 10% FBS, and cultured for 24 h. Then, cells were washed once with PBS, and free-swimming trypomastigotes (1 × 10^7 trypomastigotes per flask; MOI = 1) in assay medium were added and allowed 18 h to infect. After that, infected cell monolayers were washed with PBS and detached. Cells were counted and diluted to a concentration of 5 × 10^5 cells per mL, before adding 100 µL per well to test plates already containing the drugs dispensed as described above. In all cases, we included BNZ as control drug, and each plate contained its own negative (Vero cells and parasites) and positive (Vero cells) controls.
as §3

[5] = tested on: T. cruzi Tulahuen strain expressing β-galactosidase; test: anti-T. cruzi dose-response growth inhibition assay (Vero cells plus trypomastigotes, CPRG readout); type: cell-based
Protocol: as §4
T. cruzi growth was primarily analyzed under three different concentrations ([…]) of the 81 compounds. Conditions were tested in triplicate for every concentration. Z-values varied between 0.81 and 0.92 in the different plates analyzed. Selected compounds (34.6% potential hit rate) were further analyzed via standard growth inhibition assays. The Z-values of dose–response assays correlated with those previously reported. For both assays, Vero cells and trypomastigotes from the Tulahuen T. cruzi strain expressing β-galactosidase were harvested, centrifuged, and resuspended in DMEM without phenol red supplemented with 1% PSG, 2% FBS, 1 mM sodium pyruvate, and 25 mM HEPES. Vero cells and trypomastigotes were counted, diluted at a concentration of 1 × 10^6 cells/mL each, and mixed 1:1 (v/v). Then, 100 μL of that mixture was added per well to the plates already containing the compounds. Each well contained 50,000 host cells and 50,000 parasites, i.e., multiplicity of infection (MOI) = 1. BNZ was used as control of maximal drug growth inhibition in each round, whereas each plate contained its own negative control (maximum parasite growth; Vero cells plus parasites without drugs) and positive control (minimum parasite growth; trypomastigote forms alone marking an enzymatic zero time or baseline galactosidase activity). After four days at 37 °C, 50 µL of a PBS solution containing 0.25% NP40 and 500 µM chlorophenol red-β-D-galactopyranoside (CPRG) substrate were added per well [32]. Plates were incubated at 37 °C for 4 h, and their absorbance read out at 590 nm using an Epoch Gene5 spectrophotometer.
as §3

[6] = Plasmodium falciparum, 3D7, 48 h
[7] = compound at 1 µM, average of at least three independent experiments
[8] = compound at 10 µM, average of at least three independent experiments
[9] = Vero cells plus trypomastigotes, MOI 1, four days, mean (SD), read-out: T. cruzi IC50 a (anti-T. cruzi assay)

Structure (SMILES)	IC50 (P. falciparum 3D7 [1])	IC50 (P. falciparum 3D7 [1]; [6])	Vero Cells TC50 (Vero cells)	activity at 1 µM (P. falciparum 3D7 [2])	activity at 10 µM (P. falciparum 3D7 [2])	activity at 100 µM (P. falciparum 3D7 [2])	activity at 100 µM [3]	activity at 1 µM [3, 7]	activity at 10 µM [3, 8]	Primary screening, parasite growth relative to the negative control (P. falciparum 3D7 [2]; compound at 1 µM)	Primary screening, parasite growth relative to the negative control (P. falciparum 3D7 [2]; compound at 10 µM)	Primary screening, parasite growth relative to the negative control (P. falciparum 3D7 [2]; compound at 100 µM)	Primary screening, growth inhibition values at 1 µM [3, 7]	Primary screening, growth inhibition values at 10 µM [3, 8]	IC50 [4]	IC50 [5, 9]	IC50 ([5]; Trypanosoma cruzi, TULAHUEN, Vero, anti-T. cruzi IC50 of non-progressed compounds, read-out: Dose-response assay IC50)
COc1ccccc1-n1cc(COc2ncnc3c2nc(-c2ccccc2)n3N(C)C)nn1 [Compound 33]	19.2 µM	~20 µM	>300 µM	96.3%	85.4%	22.5%	21.5%	91.5%	63.3%								
c1ccc(-c2nc3c(OCc4cn(Cc5cscn5)nn4)ncnc3n2N2CCCCC2)cc1 [Compound 76]	18.3 µM	~20 µM	>500 µM	95.7%	84.3%	15.2%	49.8%	89.4%	88.2%								
CN1CCN(n2c(-c3ccccc3)nc3c(OCc4cn(Cc5cscn5)nn4)ncnc32)CC1 [Compound 84]	28 µM		>70 µM							96.34%	88.61%	13.94%	93.615	93.94			
COc1cccc(-n2cc(COc3ncnc4c3ncn4C(C)(C)C)nn2)c1 [Compound 88]	65.3 µM		>180 µM							92.13%	81.69%	21.43%			35.4 µM	12.7 µM	
C#CCOc1ncnc2c1ncn2N1CCN(C)CC1 [Compound 93]			>2000 µM							107.86%	104.00%	105.52%			218 µM	1.42 µM	
COc1cccc(-n2cc(COc3ncnc4c3ncn4N3CCN(C)CC3)nn2)c1 [Compound 94]			>60 µM							128.84%	125.18%	104.00%			75.1 µM	0.92 µM	
c1ccc(COc2ncnc3c2ncn3Cc2ccccc2)cc1 [MJ11]				103%	102%	31.8%	6.06%	91.4%	85.5%								17.7 µM

— article PMC8308784, “Novel Purine Chemotypes with Activity against Plasmodium falciparum and Trypanosoma cruzi” (Pharmaceuticals, 2021)
